Patent US20230125667A1, “NOVEL TDZD ANALOGS AS AGENTS THAT DELAY, PREVENT, OR REVERSE AGE-ASSOCIATED DISEASES AND AS ANTI-CANCER AND ANTILEUKEMIC AGENTS” (United States Government as represented by the Department …, priority 2020, published 2023)

Key:
tau hyperphosphorylation = assay: Tau hyperphosphorylation in rat cortical cells; type: cell-based; conditions: FIG. 23
Protocol: Microtubule assembly involves stable tau binding to other proteins in the complex, including tubulin. Hyperphosphorylated tau is readily sequestered into aggregates and generates intracellular neurofibrillary tangles (“tau tangles”). […] The top drugs were tested for impact on tau hyperphosphorylation in rat cortical cells (FIG. 23).
Primary cultures were established from cerebral cortex of E18 rats; under serum-free conditions (Neurobasal/B27) these cultures contain ˜85% neurons, with the remainder comprising astrocytes (˜12% and microglia ˜3%). At the […], triplicate cultures were exposed to the test compounds at the indicated concentrations; a separate triplicate was exposed to vehicle (0.5% DMSO final concentration). After 24 h, cultures were washed once with ice-cold PBS and then scraped in RIPA buffer containing inhibitors of proteases and phosphatases. Lysates were centrifuged at 14,000 g at 4° C. for 7 min. Supernatants were removed and stored at −80° C. after removal of small aliquots for determination of protein concentration by BCA. Samples equilibrated for total protein were analyzed by Wes™ capillary-gel immunodetection (ProteinSimple) using the AT8 clone of anti-phosphoTau (Invitrogen MN 1020) or total Tau (ABclonal A0002). Detected antigen was calculated by peak area (automated peak fit), and values are reported as AT8 normalized to total Tau.

wild-type nematodes = assay: Lifespan of C. elegans; type: in vivo; conditions: FIG. 8
Protocol: It was previously shown that several interventions that improve age-associated phenotypes also modulate lifespan (Ayyadevara et al. (2017) Antioxid Redox Signal. 27(17): 1383-1396; Ayyadevara et al. (2005) Aging Cell. 4(5): 257-271). The lifespan was assessed in C. elegans, either mock-treated or exposed to TDZD analogues. PNR-962 and BSK-179 extended the lifespan of wild-type nematodes to an identical degree, increasing the mean by roughly 25-30% (P<0.001; FIG. 8).
To obtain synchronized eggs for lifespan studies, worms were maintained for 2 generations, free of contamination and starvation. Healthy, well-fed adult worms from the 2nd generation were then lysed, and eggs placed on plates with appropriate doses of TDZD analogue PNR962, or DMSO vehicle alone (for a final concentration of 0.02% v/v DMSO). At the L4 larval stage, worms were transferred daily to fresh plates for 7 days, and thereafter on alternate days until all the worms are dead. C. elegans that moved spontaneously or responded to gentle prodding were scored as alive. For the mortality computation, worms that were lost for reasons other than natural death were censored. The methods described were adopted from previously described experimental procedures (Ayyadevara, et al. (2016) PIP3-binding proteins promote age-dependent protein aggregation and limit survival in C. elegans. Oncotarget, 7(31): 48870-48886; Bharill, et al. (2013) Extreme Depletion of PIP3 Accompanies the Increased Life Span and Stress Tolerance of PI3K-null C. elegans Mutants. Frontiers in Genetics, 4).

C. elegans strain CL4176 = assay: Amyloid-associated paralysis in C. elegans strain CL4176; type: in vivo; conditions: after induction of Aβ1-42 in muscle (FIG. 5)

O=c1sn(CCI)c(=O)n1Cc1ccccc1 [PNR-962]
tau hyperphosphorylation (tau hyperphosphorylation): suppression of tau hyperphosphorylation
lifespan (wild-type nematodes): increased
paralysis rescued / reduced (C. elegans strain CL4176): > 75%
